Where “and” joins values, the source holds several entries; their conditions need not be identical. Equal values may be shown once. Toxic doses and inconclusive results are not listed. Peptide text beside a SMILES is read from it. * marks the point of attachment. Cbz = O=C(OCc1ccccc1)*; Bn = c1ccc(C*)cc1

For this test, the system named is P388 leukemia ip, CD2F1 mice, survival T/C. The test can be described thus: NCI In Vivo Anticancer Drug Screen. Data for tumor model P388 Leukemia (intraperitoneal) in CD2F1 (CDF1) mice. Conditions: endpoint: median survival time, higher = longer survival. A digest of the protocol: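 Mice carrying the transplanted tumor received test compound or vehicle. Survival was recorded in each group, and the value is the treated-group measurement divided by that of the vehicle-treated control group.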

[1] abbreviates: dose: 60.0 mg/kg/injection, schedule: Q01DX005 (ip), vehicle: saline with Tween-80.
[2] abbreviates: dose: 120.0 mg/kg/injection, schedule: Q01DX005 (ip), vehicle: saline with Tween-80.
Setting [3] is: dose: 240.0 mg/kg/injection, schedule: Q01DX005 (ip), vehicle: saline with Tween-80.
[4] abbreviates: dose: 50.0 mg/kg/injection, schedule: Q01DX009 (ip), vehicle: saline with Tween-80.
The mark [5] stands for this setting: dose: 50.0 mg/kg/injection, schedule: Q01DX005 (ip), vehicle: Klucel (hydroxypropylcellulose) (HPC).
Setting [6] is: dose: 100.0 mg/kg/injection, schedule: Q01DX005 (ip), vehicle: Klucel (hydroxypropylcellulose) (HPC).
The mark [7] stands for this setting: dose: 50.0 mg/kg/injection, schedule: Q01DX005 (ip), vehicle: saline with Tween-80.
The mark [8] stands for this setting: dose: 100.0 mg/kg/injection, schedule: Q01DX005 (ip), vehicle: saline with Tween-80.
The mark [9] stands for this setting: dose: 50.0 mg/kg/injection, schedule: Q01DX009 (ip), vehicle: Klucel (hydroxypropylcellulose) (HPC).
Setting [10] is: dose: 200.0 mg/kg/injection, schedule: Q01DX005 (ip), vehicle: saline with Tween-80.

`CCNCCn1cccc1`: the T/C is 91 % of control (dose: 50.0 mg/kg/injection, schedule: Q04DX003 (ip), vehicle: saline); 95 % of control (dose: 100.0 mg/kg/injection, schedule: Q04DX003 (ip), vehicle: saline); 95 % of control (dose: 200.0 mg/kg/injection, schedule: Q04DX003 (ip), vehicle: saline).
Regarding `Cc1ccc(O)c(C(NCCO)c2ccccc2)c1` (stereo not drawn), for the setting “dose: 100.0 mg/kg/injection, schedule: Q04DX002 (ip), vehicle: saline”, the T/C is 102 % of control.
Consider `Cc1cc(O)cc2c1c(=O)c1ccccc1n2C`, for which the T/C reads like this: under setting [1], 100 % of control; under setting [2], 100 % of control; under setting [3], 96 % of control.
Consider `CC1C(=O)OC(C)(C)C1(C)C` (stereo not drawn), for which the T/C under setting [4] is 101 % of control.
Consider `CCOC(=O)Nc1cc(NCC(=O)c2ccc(Cl)cc2)c([N+](=O)[O-])c(N)n1`, for which the T/C runs as follows: (dose: 50.0 mg/kg/injection, schedule: Q01DX001 (ip), vehicle: saline with Tween-80) 92 % of control; (dose: 100.0 mg/kg/injection, schedule: Q01DX001 (ip), vehicle: saline with Tween-80) 90 % of control; (dose: 200.0 mg/kg/injection, schedule: Q01DX001 (ip), vehicle: saline with Tween-80) 88 % of control.
Take `CC(C)C(NC(=O)C(CSCc1ccccc1)NC(=O)OCc1ccccc1)C(=O)O` (stereo not drawn) (Cbz-Cys(Bn)-Val-OH; configuration not given here): the T/C reads like this: under setting [5], 97 % of control; under setting [6], 88 % of control.
`O=C1NC(c2ccccc2)N=C2Oc3ccccc3C=C12` (stereo not drawn): the T/C by setting is: (dose: 3.12 mg/kg/injection, schedule: Q01DX009 (ip), vehicle: saline) 97 % of control; (dose: 6.25 mg/kg/injection, schedule: Q01DX009 (ip), vehicle: saline) 97 % of control; (dose: 12.5 mg/kg/injection, schedule: Q01DX009 (ip), vehicle: saline with Tween-80) 115 % of control; (dose: 12.5 mg/kg/injection, schedule: Q01DX009 (ip), vehicle: saline) 106 % of control.
`O=C(O)c1c(CS(F)(F)(F)(F)F)cc(=O)oc1CS(F)(F)(F)(F)F`: the T/C is, setting by setting: under setting [7], 106 % of control; under setting [8], 105 % of control.
For `CCOC(=O)/C=C/C(=O)NN`, the T/C was 89 % of control (dose: 12.5 mg/kg/injection, schedule: Q01DX009 (ip), vehicle: water); 100 % of control (dose: 25.0 mg/kg/injection, schedule: Q01DX009 (ip), vehicle: water); 99 % of control and 102 % of control and 93 % of control (dose: 50.0 mg/kg/injection, schedule: Q01DX009 (ip), vehicle: water); 107 % of control and 109 % of control and 97 % of control (dose: 100.0 mg/kg/injection, schedule: Q01DX009 (ip), vehicle: water); 104 % of control and 109 % of control (dose: 200.0 mg/kg/injection, schedule: Q01DX009 (ip), vehicle: water).
Take `O=c1c2ccccc2ncn1S(=O)(=O)c1ccc(N(CCCl)CCCl)cc1`: the T/C is, setting by setting: (dose: 100.0 mg/kg/injection, schedule: Q04DX002 (ip), vehicle: saline with Tween-80) 110 % of control; (dose: 200.0 mg/kg/injection, schedule: Q04DX002 (ip), vehicle: saline with Tween-80) 118 % of control.
With `CC(C)CC(N)C(=O)NC(Cc1cc2ccccc2[nH]1)C(=O)O` (stereo not drawn), the T/C by setting is: under setting [4], 101 % of control; (dose: 100.0 mg/kg/injection, schedule: Q01DX009 (ip), vehicle: saline with Tween-80) 107 % of control; (dose: 200.0 mg/kg/injection, schedule: Q01DX009 (ip), vehicle: saline with Tween-80) 104 % of control.
For `O=C1/C(=C/c2cccs2)CCc2ccccc21`, the T/C was 100 % of control (dose: 60.0 mg/kg/injection, schedule: Q01DX005 (ip), vehicle: Klucel (hydroxypropylcellulose) (HPC)); 107 % of control (dose: 120.0 mg/kg/injection, schedule: Q01DX005 (ip), vehicle: Klucel (hydroxypropylcellulose) (HPC)); 98 % of control (dose: 240.0 mg/kg/injection, schedule: Q01DX005 (ip), vehicle: Klucel (hydroxypropylcellulose) (HPC)).
On to `O=C1c2ccccc2C(=O)c2c1ccc(C1C(=O)c3ccccc3C1=O)c2-c1c(C2C(=O)c3ccccc3C2=O)ccc2c1C(=O)c1ccccc1C2=O`, for which the T/C is 103 % of control under setting [1], 99 % of control under setting [2] and 97 % of control under setting [3].
Take `Nc1c(O)c(S(=O)(=O)O)c(O)c2c1C(=O)c1ccccc1C2=O`: the T/C is 100 % of control under setting [1] and 98 % of control under setting [2].
With `COc1ccc(/C=C2\NC(c3ccccc3)OC2=O)cc1OC` (stereo not drawn), the T/C runs as follows: under setting [9], 98 % of control; (dose: 100.0 mg/kg/injection, schedule: Q01DX009 (ip), vehicle: Klucel (hydroxypropylcellulose) (HPC)) 89 % of control; (dose: 200.0 mg/kg/injection, schedule: Q01DX009 (ip), vehicle: Klucel (hydroxypropylcellulose) (HPC)) 100 % of control.
As to `C=C1CC2(CCCCC2c2ccccc2)OC1=O` (stereo not drawn), the T/C is 97 % of control (dose: 100.0 mg/kg/injection, schedule: Q04DX002 (ip), vehicle: Klucel (hydroxypropylcellulose) (HPC)); 103 % of control (dose: 200.0 mg/kg/injection, schedule: Q04DX002 (ip), vehicle: Klucel (hydroxypropylcellulose) (HPC)); 103 % of control (dose: 400.0 mg/kg/injection, schedule: Q04DX002 (ip), vehicle: Klucel (hydroxypropylcellulose) (HPC)).
Consider `Cc1nn(C)c(=O)[nH]c1=O`, for which the T/C under setting [7] was 103 % of control, the T/C under setting [8] is 106 % of control and the T/C under setting [10] is 106 % of control.
For the compound `CN1CC(O)C2=CC(=O)C(=O)C=C21` (stereo not drawn), the T/C reads like this: (dose: 30.0 mg/kg/injection, schedule: Q01DX005 (ip), vehicle: saline) 117 % of control; (dose: 60.0 mg/kg/injection, schedule: Q01DX005 (ip), vehicle: saline) 120 % of control; (dose: 120.0 mg/kg/injection, schedule: Q01DX005 (ip), vehicle: saline) 119 % of control.
As to `Cc1cnc(NCCCNc2ncc(C)c(-c3ccccc3O)n2)nc1-c1ccccc1O`, the T/C runs as follows: under setting [5], 88 % of control; under setting [6], 86 % of control; (dose: 200.0 mg/kg/injection, schedule: Q01DX005 (ip), vehicle: Klucel (hydroxypropylcellulose) (HPC)) 92 % of control.
Consider `c1ccc(-c2cn3ccsc3n2)cc1`, for which the T/C is 109 % of control (dose: 25.0 mg/kg/injection, schedule: Q01DX009 (ip), vehicle: other); 115 % of control (dose: 50.0 mg/kg/injection, schedule: Q01DX009 (ip), vehicle: other); 115 % of control (dose: 100.0 mg/kg/injection, schedule: Q01DX009 (ip), vehicle: other); 115 % of control (dose: 200.0 mg/kg/injection, schedule: Q01DX009 (ip), vehicle: other).
Regarding `C=C1CCC2C(C)(C(=O)O)CCCC2(C)C1CCc1ccoc1` (stereo not drawn), the T/C was 102 % of control (dose: 12.75 mg/kg/injection, schedule: Q01DX005 (ip), vehicle: Klucel + Tween-80); 96 % of control (dose: 25.5 mg/kg/injection, schedule: Q01DX005 (ip), vehicle: Klucel + Tween-80); 110 % of control (dose: 51.0 mg/kg/injection, schedule: Q01DX005 (ip), vehicle: Klucel + Tween-80); 110 % of control (dose: 102.0 mg/kg/injection, schedule: Q01DX005 (ip), vehicle: Klucel + Tween-80).
Regarding `COc1ccc(/C=C/c2nnc(N)o2)cc1`, the T/C runs as follows: under setting [7], 100 % of control; under setting [8], 101 % of control; under setting [10], 105 % of control.
On to `CCOC(=O)c1nnc2cc(-c3ccccc3)nn2c1-c1ccccc1`, for which the T/C is 101 % of control under setting [1] and 95 % of control under setting [2].
As to `CCCCCCCCCCCC[N+](C)([O-])CCCCCC[N+](C)([O-])CCCCCCCCCCCC` (stereo not drawn), the T/C was 96 % of control (dose: 12.5 mg/kg/injection, schedule: Q01DX009 (ip), vehicle: Klucel (hydroxypropylcellulose) (HPC)); 95 % of control (dose: 25.0 mg/kg/injection, schedule: Q01DX009 (ip), vehicle: Klucel (hydroxypropylcellulose) (HPC)); 100 % of control and 95 % of control under setting [9].

These data come from PubChem BioAssay AID330 (DTP/NCI, 2004).
